Test results: PubChem BioAssay (NCI)
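Five compound concentrations were applied to cells in 96-well plates for 48 hours; endpoints were derived by simple linear interpolation of the resulting dose-response curve. Definition used: TGI = concentration required for complete inhibition of growth.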

Columns and labels:
Test in all cases: DTP human tumour cell line panel, 48 h
786-0 renal = tested on: 786-0 renal
A498 renal = tested on: A498 renal
A549 NSCLC = tested on: A549 NSCLC
ACHN renal = tested on: ACHN renal
CAKI-1 renal = tested on: CAKI-1 renal
CCRF-CEM leukemia = tested on: CCRF-CEM leukemia
COLO 205 colon = tested on: COLO 205 colon
DLD-1 colon = tested on: DLD-1 colon
DMS 114 small cell lung = tested on: DMS 114 small cell lung
EKVX NSCLC = tested on: EKVX NSCLC
HCC-2998 colon = tested on: HCC-2998 colon
HCT-116 colon = tested on: HCT-116 colon
HCT-15 colon = tested on: HCT-15 colon
HL-60(TB) leukemia = tested on: HL-60(TB) leukemia
HOP-18 NSCLC = tested on: HOP-18 NSCLC
HOP-62 NSCLC = tested on: HOP-62 NSCLC
HOP-92 NSCLC = tested on: HOP-92 NSCLC
HT29 colon = tested on: HT29 colon
IGROV1 ovarian = tested on: IGROV1 ovarian
K-562 leukemia = tested on: K-562 leukemia
KM12 colon = tested on: KM12 colon
KM20L2 colon = tested on: KM20L2 colon
LOX IMVI melanoma = tested on: LOX IMVI melanoma
LXFL 529 NSCLC = tested on: LXFL 529 NSCLC
M14 melanoma = tested on: M14 melanoma
M19-MEL melanoma = tested on: M19-MEL melanoma
MALME-3M melanoma = tested on: MALME-3M melanoma
MOLT-4 leukemia = tested on: MOLT-4 leukemia
NCI-H226 lung = tested on: NCI-H226 lung
NCI-H23 lung = tested on: NCI-H23 lung
NCI-H460 lung = tested on: NCI-H460 lung
NCI-H522 lung = tested on: NCI-H522 lung
OVCAR-3 ovarian = tested on: OVCAR-3 ovarian
OVCAR-4 ovarian = tested on: OVCAR-4 ovarian
OVCAR-5 ovarian = tested on: OVCAR-5 ovarian
OVCAR-8 ovarian = tested on: OVCAR-8 ovarian
RPMI-8226 leukemia = tested on: RPMI-8226 leukemia
RXF 393 renal = tested on: RXF 393 renal
SF-268 CNS = tested on: SF-268 CNS
SF-295 CNS = tested on: SF-295 CNS
SF-539 CNS = tested on: SF-539 CNS
SK-MEL-2 melanoma = tested on: SK-MEL-2 melanoma
SK-MEL-28 melanoma = tested on: SK-MEL-28 melanoma
SK-MEL-5 melanoma = tested on: SK-MEL-5 melanoma
SK-OV-3 ovarian = tested on: SK-OV-3 ovarian
SN12C renal = tested on: SN12C renal
SNB-19 CNS = tested on: SNB-19 CNS
SNB-75 CNS = tested on: SNB-75 CNS
SNB-78 CNS = tested on: SNB-78 CNS
SR leukemia = tested on: SR leukemia
SW-620 colon = tested on: SW-620 colon
TK-10 renal = tested on: TK-10 renal
U251 CNS = tested on: U251 CNS
UACC-257 melanoma = tested on: UACC-257 melanoma
UACC-62 melanoma = tested on: UACC-62 melanoma
UO-31 renal = tested on: UO-31 renal
XF 498 CNS = tested on: XF 498 CNS
DMS 273 small cell lung = tested on: DMS 273 small cell lung

Measured: TGI

Cc1nc(C(N)=S)sc1C(=O)CC(=O)C(=O)Nc1c(C(C)C)cccc1C(C)C
64.6 µM: DMS 114 small cell lung
88.9 µM: NCI-H23 lung
42 µM: OVCAR-3 ovarian
92.9 µM: HOP-92 NSCLC
46.9 µM: NCI-H522 lung
71.7 µM: SNB-75 CNS
85.4 µM: SF-295 CNS
48.8 µM: XF 498 CNS
86.3 µM: SF-539 CNS
not listed: DMS 273 small cell lung
> 100 µM: all other assays above

Cc1cc([N+](=O)[O-])c(C)c2c1[nH]c1ccc(O)cc12
79 µM: RPMI-8226 leukemia
43.7 µM: DLD-1 colon
63 µM: HL-60(TB) leukemia
not listed: A498 renal | HOP-92 NSCLC | IGROV1 ovarian | KM20L2 colon | LXFL 529 NSCLC | NCI-H522 lung | RXF 393 renal | SK-OV-3 ovarian | U251 CNS | UACC-62 melanoma
> 100 µM: all other assays above

COC(=O)C1CCC(=O)C(Sc2ccccc2)C1 (configuration not stated)
99 µM: UO-31 renal
96.4 µM: SNB-75 CNS
80 µM: CCRF-CEM leukemia
not listed: 786-0 renal | HCC-2998 colon | HOP-62 NSCLC | MALME-3M melanoma | SK-MEL-2 melanoma | SR leukemia
> 100 µM: all other assays above
